Measured values from patent US10975060B2, “High relaxivity gadolinium chelate compounds for use in magnetic resonance imaging” (BAYER PHARMA AKTIENGESELLSCHAFT, priority 2016, dated 2021).
Read-outs that look alike come from different tables or passages of the source.

How the values were obtained:
[1] = Dynamic CT diffusion phantom study (dialysis cassette in fetal bovine serum); assay type: physicochemical; settings: dialysis cassette 20,000 MWCO, 20 mmol Gd/L, CT signal over 30 h
Procedure: The described dynamic CT diffusion study compares the ability of Examples 1-10 and Reference compounds 1 and 4 to pass a semipermeable membrane (20 kDa). A 128-row clinical CT device (SOMATOM Definition, 128; Siemens Healthcare, Forchheim, Germany) was used to monitor the diffusion through a semipermeable membrane at 100 kV and 104 mA. Single measurements were performed at 0 min, 1 min, 2 min, 3 min, 5 min, 10 min, 15 min, 20 min, 30 min, 45 min, 60 min, 2 h, 3 h, 5 h, 7 h, 22 h, 24 h, 30 h after placing the dialysis cassette (Slide-A-Lyser, 20,000 MWCO, 0.1-0.5 mL Capacity, Thermo Scientific, Roskilde, Denmark) filled with contrast agent in fetal bovine serum solution (FBS, Sigma, F7524). The images were reconstructed with a slice thickness of 2.4 mm and a B30 convolution kernel. The used concentration in the dialysis cassettes of the investigated Examples 1-10 and Reference compounds 1 and 4 was 20 mmol Gd/L.
The imaging results for all investigated Examples and the Reference compounds 1 and 4 for the time points 0 min and 30 h after placing the cassettes in the FBS solution are depicted in FIG. 1. For image analysis, regions of interest were manually drawn on 1 centrally located slice for each time point (a representative measurement region is indicated in FIG. 1: Image RC1).

[2] = Water solubility (exploratory, 10 mM Tris-HCl, 20 °C); assay type: physicochemical; settings: water (10 mM Tris-HCl buffer), pH 7.4
Procedure: The exploratory water solubilities of the compounds were determined at room temperature (20° C.) in 0.5 mL buffer solution (10 mM Tris-HCl) in the microcentrifuge tubes (Eppendorf, 2.0 mL safe-lock caps). The solid compounds were added stepwise to the buffer solution. The suspension was mixed using a shaker (Heidolph Reax 2000) and treated 5 min in an ultrasound bath (Bandelin, Sonorex Super RK255H).

[3] = Relaxivity measurements at 3.0 T (whole body MRI scanner, 37 °C) in water and human plasma; assay type: physicochemical; settings: normalized to Gd, average ± standard deviation
Procedure: Relaxivity Measurements at 3.0 T
Relaxivity measurements at 3.0 T were performed with a whole body 3.0 T MRI Scanner (Philips Intera, Philips Healthcare, Hamburg, Germany) using a knee-coil (SENSE-Knee-8, Philips Healthcare, Hamburg, Germany). The sample tubes (CryoTubetm Vials, Thermo Scientific 1.8 mL, Roskilde, Denmark) were positioned in 3 rows of 4 and 5 tubes in a plastic holder in a box filled with water. The temperature was adjusted to 37° C. For the MRI sequence the shortest possible echo-time (TE) with 7.46 milliseconds was used. The inversion times were chosen to optimize the sequence to measure T1 values corresponding to the estimated T1 range of all relaxation times of contrast media containing solutions. The following inversion times (TIs) were applied: 50, 100, 150, 200, 300, 500, 700, 1000, 1400, 2100, 3200, and 4500 milliseconds. The sequence was run with a constant relaxation delay of 3.4 seconds after the registration of the last echo (variable TR in the range from 3450 to 7900 milliseconds). For details of the fit procedure, see Rohrer et. al. (Invest. Radiol. 2005; 40, 11: 715-724). The experimental matrix of the phantom measurement was 320×320.
The relaxivities were evaluated using three different concentrations of each compound (3 concentrations between 0.05 and 2 mM).
The T1 relaxation times of Example compounds were measured in water and human plasma. Human plasma preparation: For each experiment fresh blood was taken from a volunteer using 10 mL citrate-tubes (Sarstedt S-Monovette 02.1067.001, 10 mL, Citrate). The 10 mL citrate-tubes were carefully inverted 10 times to mix blood and anticoagulant and centrifuged for 15 minutes at 1811 g at room temperature (Eppendorf, Centrifuge 5810R).
The relaxivities ri (where i=1, 2) were calculated on the basis of the measured relaxation rates Ri in water and plasma: Ri=Ri(0)+ri[CGd], where Ri(0) represent the relaxation rate of the respective solvent and CGd the concentration of the compound normalized to the Gadolinium (Table 2).

[4] = Relaxivity measurements at 1.4 T (MiniSpec mq60, 60 MHz, 37 °C) in water and human plasma; assay type: physicochemical; settings: 1.41 T, normalized to Gd
Procedure: Relaxivity Measurements at 1.4 T
Relaxivity measurements at 1.41 T were performed using a MiniSpec mq60 spectrometer (Bruker Analytik, Karlsruhe, Germany) operating at a resonance frequency of 60 MHz and a temperature of 37° C. The T1 relaxation times were determined using the standard inversion recovery (IR) method with a fixed relaxation delay of at least 5×T1. The variable inversion time (TI) was calculated automatically by the standard software of the MiniSpec mq60 (8 steps). The T2 measurements were done by using a Carr-Purcell-Meiboom-Gill (CPMG) pulse sequence, applying a relaxation delay of at least 5×T1.
Each relaxivity measurement was performed using three different Gd concentrations (3 concentrations between 0.05 and 2 mM). The T1 and T2 relaxation times of the example compounds 1 to 10 were measured in different media for example in water and human plasma. Human plasma preparation: For each experiment fresh blood was taken from a volunteer using 10 mL citrate-tubes (Sarstedt S-Monovette 02.1067.001, 10 mL, Citrate). The 10 mL citrate-tubes were carefully inverted 10 times to mix blood and anticoagulant and centrifuged for 15 minutes at 1811 g at room temperature (Eppendorf, Centrifuge 5810R).
The relaxivities ri (where i=1, 2) were calculated on the basis of the measured relaxation rates Ri in water and plasma: Ri=Ri(0)+ri[CGd], where Ri(0) represent the relaxation rate of the respective solvent and CGd the concentration of the compound normalized to the Gadolinium. The Gadolinium concentrations of the investigated solutions were verified by Inductively Coupled Plasma Mass Spectrometry (ICP-MS Agilent 7500a, Waldbronn, Germany).

[5] = 37 °C, cited from earlier work
[6] = 1.5 T, bovine plasma instead of human plasma, from Rohrer et al.
[7] = 3.0 T, plasma, reference compounds marked ^ (Rohrer et al., bovine plasma per Table 1 footnote)
[8] = 3.0 T, reference compounds marked ^ (Rohrer et al. per Table 1 footnote)

| Compound | Diffusion half-live (20 kDa) [1] | Solubility [2] [mg/100 mL] | r1 human plasma ([3]; human plasma) [L/mmol/s] | r1 water ([3]; water) [L/mmol/s] | r1 human plasma [4] [L/mmol/s] | r1 water [4] [L/mmol/s] | r1 human plasma [5, 6] [L/mmol/s] | r1 water ([5]; 1.5 T, from Rohrer et al.) [L/mmol/s] | r1 human plasma [5, 7] [L/mmol/s] | r1 water [5, 8] [L/mmol/s] |
| --- | --- | --- | --- | --- | --- | --- | --- | --- | --- | --- |
| O=C([O-])CN1CCN(CC(=O)[O-])CCN(CC(=O)N(CC(=O)NCC(CNC(=O)CN(C(=O)CN2CCN(CC(=O)[O-])CCN(CC(=O)[O-])CCN(CC(=O)[O-])CC2)C2CCCC2)(CNC(=O)CN(C(=O)CN2CCN(CC(=O)[O-])CCN(CC(=O)[O-])CCN(CC(=O)[O-])CC2)C2CCCC2)CNC(=O)CN(C(=O)CN2CCN(CC(=O)[O-])CCN(CC(=O)[O-])CCN(CC(=O)[O-])CC2)C2CCCC2)C2CCCC2)CCN(CC(=O)[O-])CC1.[Gd+3].[Gd+3].[Gd+3].[Gd+3] [Example 8, Tetragadolinium [4,10-bis(carboxylatomethyl)-7-{3,13-dicyclopentyl-8,8-bis({[(cyclopentyl{[4,7,10-tris(carboxylatomethyl)-1,4,7,10-tetraazacyclododecan-1-yl]acetyl}-amino)acetyl]amino}methyl)-2,5,11,14-tetraoxo-15-[4,7,10-tris(carboxylatomethyl)-1,4,7,10-tetraazacyclododecan-1-yl]-3,6,10,13-tetraazapentadec-1-yl}-1,4,7,10-tetra-azacyclododecan-1-yl]acetate] | 10.5 h | >1000 | 12.0 ± 0.4 | 10.7 ± 0.1 | 14.1 | 11.7 | – | – | – | – |
| CCOc1ccc(CC(CN(CCN(CC(=O)[O-])CC(=O)[O-])CC(=O)[O-])N(CC(=O)[O-])CC(=O)[O-])cc1.[Gd+3].[Na+].[Na+] (stereo not drawn) [RC3, gadoxetate disodium] | – | – | – | – | – | – | 6.9 | 4.7 | 6.2 ± 0.3 | 4.3 ± 0.3 |
| O=C([O-])CN1CCN(CC(=O)[O-])CCN(CC(=O)N(CC(=O)NCC(CNC(=O)CN(Cc2ccccc2)C(=O)CN2CCN(CC(=O)[O-])CCN(CC(=O)[O-])CCN(CC(=O)[O-])CC2)(CNC(=O)CN(Cc2ccccc2)C(=O)CN2CCN(CC(=O)[O-])CCN(CC(=O)[O-])CCN(CC(=O)[O-])CC2)CNC(=O)CN(Cc2ccccc2)C(=O)CN2CCN(CC(=O)[O-])CCN(CC(=O)[O-])CCN(CC(=O)[O-])CC2)Cc2ccccc2)CCN(CC(=O)[O-])CC1.[Gd+3].[Gd+3].[Gd+3].[Gd+3] [Example 10, Tetragadolinium [4,10-bis(carboxylatomethyl)-7-{3,13-dibenzyl-8,8-bis({[(benzyl{[4,7,10-tris(carboxylatomethyl)-1,4,7,10-tetraazacyclododecan-1-yl]acetyl}amino)-acetyl]amino}methyl)-2,5,11,14-tetraoxo-15-[4,7,10-tris(carboxylatomethyl)-1,4,7,10-tetraazacyclododecan-1-yl]-3,6,10,13-tetraazapentadec-1-yl}-1,4,7,10-tetraazacyclo-dodecan-1-yl]acetate] | 15.0 h | >1000 | – | – | 13.3 | 11.5 | – | – | – | – |
| Gadomer-17 [RC4] | No diffusion | – | – | – | – | – | 16 | 17.3 | 13 ± 1 | 13.0 ± 0.7 |
| CNC[C@H](O)[C@@H](O)[C@H](O)[C@H](O)CO.CNC[C@H](O)[C@@H](O)[C@H](O)[C@H](O)CO.O=C([O-])CN(CCN(CC(=O)[O-])CC(=O)O)CCN(CC(=O)[O-])CC(=O)O.[Gd+3] [RC2, gadopentetate dimeglumine] | – | – | – | – | – | – | 4.1 | 3.3 | 3.7 ± 0.2 | 3.1 ± 0.3 |
| O=C([O-])CN1CCN(CC(=O)[O-])CCN(CC(=O)N(CC(=O)NCC(CNC(=O)CN(C(=O)CN2CCN(CC(=O)[O-])CCN(CC(=O)[O-])CCN(CC(=O)[O-])CC2)c2ccccc2)(CNC(=O)CN(C(=O)CN2CCN(CC(=O)[O-])CCN(CC(=O)[O-])CCN(CC(=O)[O-])CC2)c2ccccc2)CNC(=O)CN(C(=O)CN2CCN(CC(=O)[O-])CCN(CC(=O)[O-])CCN(CC(=O)[O-])CC2)c2ccccc2)c2ccccc2)CCN(CC(=O)[O-])CC1.[Gd+3].[Gd+3].[Gd+3].[Gd+3] [Example 9, Tetragadolinium [4,10-bis(carboxylatomethyl)-7-{2,5,11,14-tetraoxo-3,13-diphenyl-8,8-bis({[(phenyl{[4,7,10-tris(carboxylatomethyl)-1,4,7,10-tetraazacyclododecan-1-yl]-acetyl}amino)acetyl]amino}methyl)-15-[4,7,10-tris(carboxylatomethyl)-1,4,7,10-tetra-azacyclododecan-1-yl]-3,6,10,13-tetraazapentadec-1-yl}-1,4,7,10-tetraazacyclododecan-1-yl]acetate] | 15.1 h | >1000 | – | – | 12.0 | 11.0 | – | – | – | – |
